This test concerns drug-resistant Mycobacterium tuberculosis. The following applies: drug-resistant Mycobacterium tuberculosis growth; peptide 10 micrograms per ml; seven days.

Where a SMILES comes first, the peptide text is derived from it.

As a reminder, the % inhibition is the share of the control response that was lost under treatment. A high value points to a response far below the control.

In the case of `NCCCC[C@H](NC(=O)[C@@H](N)CCCCN)C(=O)NCC(=O)N[C@@H](CCC(=O)O)C(=O)O` [MPF, Lys-Lys-Gly-Glu-OH] (H-KKGE-OH), the “% inhibition” value is 0.0%.

Source of the values: US20100197608A1, “USE OF MELANOTROPHIN-POTENTIATING FACTOR AS A THERAPEUTIC AGENT” (priority 2007, published 2010).
